Results on 23 compounds are retold here after patent EP2064211B1, “IMIDAZO[1,2-A]PYRIDINE HYDROXYMATE COMPOUNDS THAT ARE INHIBITORS OF HISTONE DEACETYLASE” (MEI Pharma, Inc., priority 2006, dated 2008).

One assay has as its system Colo205 cells. In words: Cell-based proliferation assay for determination of GI50 values (CyQUANT). Set-up: species or system Human. Particulars: Homo sapiens, COLO 205, compound treatment 96 h, concentration for 50% inhibition of cell growth, read-out: Gl50 (Colo205). How it is done:
Human cancer cell lines (e.g. Colo205) were obtained from ATCC. Colo205 cells were cultivated in RPMI 1640 containing 2 mM L-Glutamine, 5% FBS, 1.0 mM Na Pyruvate. Colo205 cells were seeded in 96-wells plate at 5000 cells per well. The plates were incubated at 37°C, 5% CO2, for 24 h. Cells were treated with compounds at various concentrations for 96 h. Cell growth was then monitored using CyQUANT® cell proliferation assay (Invitrogen Pte Ltd). Dose response curves were plotted to determine Gl50 values for the compounds using XL-fit (ID Business Solution, Emeryville, CA). Gl50 is defined as the concentration of compound required for 50% inhibition of cell growth.

The target in a further assay is T1, HDAC1 enzyme (Homo sapiens, UniProt Q13547).
T1 construct: Amplification of human HDAC1 coding region from this cDNA library was cloned separately into the baculovirus expression pDEST20 vector; made in house; host or cells: SF9 insect cells (baculovirus, pDEST20 vector)
T1 sequence (Q13547 whole entry): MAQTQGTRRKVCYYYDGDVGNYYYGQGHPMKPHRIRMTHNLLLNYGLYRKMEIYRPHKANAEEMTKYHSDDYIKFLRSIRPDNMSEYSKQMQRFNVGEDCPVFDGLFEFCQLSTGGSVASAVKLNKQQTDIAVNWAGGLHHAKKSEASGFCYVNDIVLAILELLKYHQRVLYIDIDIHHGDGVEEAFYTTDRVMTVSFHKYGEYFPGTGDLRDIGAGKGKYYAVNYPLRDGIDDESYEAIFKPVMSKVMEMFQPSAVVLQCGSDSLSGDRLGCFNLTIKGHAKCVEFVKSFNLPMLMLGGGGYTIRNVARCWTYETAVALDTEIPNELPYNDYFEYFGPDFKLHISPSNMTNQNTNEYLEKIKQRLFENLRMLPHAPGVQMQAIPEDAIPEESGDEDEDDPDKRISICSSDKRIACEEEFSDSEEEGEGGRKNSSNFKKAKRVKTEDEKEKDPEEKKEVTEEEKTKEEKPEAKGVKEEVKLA
The assay is described as follows: In vitro HDAC assay for determination of IC50 values (BIOMOL fluorescent-based HDAC activity assay). The assay is classed as biochemical. Particulars: recombinant GST-HDAC1, 500 uM Flur de lys substrate, room temperature 2 h; read-out: IC50 (HDAC 1). The method, then:
Human cDNA library was prepared using cultured SW620 cells. Amplification of human HDAC1 coding region from this cDNA library was cloned separately into the baculovirus expression pDEST20 vector (GATEWAY Cloning Technology, Invitrogen Pte Ltd). The pDEST20-HDAC1 construct was confirmed by DNA sequencing. Recombinant baculovirus was prepared using the Bac-To-Bac method following the manufacturer's instruction (Invitrogen Pte Ltd).
Expression of GST-HDAC1 was done by infecting SF9 cells (Invitrogen Pte Ltd) with pDEST20-HDAC1 baculovirus at MOI=1 for 48 h. Soluble cell lysate was incubated with pre-equilibrated Glutathione Sepharose 4B beads (Amersham) at 4°C for 2 h. The beads were washed with PBS buffer for 3 times. The GST-HDAC1 protein was eluted by elution buffer containing 50 mM Tris, pH8.0, 150mM NaCl, 1% Triton X-100 and 10mM or 20mM reduced Glutathione. The purified GST-HDAC1 protein was dialyzed with HDAC storage buffer containing 10mM Tris, pH7.5, 100mM NaCl and 3mM MgCl2. 20% Glycerol was added to purified GST-HDAC1 protein before storage at -80°C.
The assay has been carried out in 96 well format and the BIOMOL fluorescent-based HDAC activity assay has been applied. The reaction composed of assay buffer, containing 25 mM Tris pH 7.5, 137 mM NaCl, 2.7 mM KCl, 1 mM MgCl2, 1 mg/ml BSA, tested compounds, an appropriate concentration of HDAC1 enzyme, 500 uM Flur de lys generic substrate for HDAC1 enzyme and subsequently was incubated at room temperature for 2 h. Flur de lys Developer was added and the reaction was incubated for 10 min. Briefly, deacetylation of the substrate sensitizes it to the developer, which then generates a fluorophore. The fluorophore is excited with 360 nm light and the emitted light (460 nm) is detected on a fluorometric plate reader (Tecan Ultra Microplate detection system, Tecan Group Ltd.).
The analytical software, Prism 4.0 (GraphPad Software Inc) has been used to generate IC50 from a series of data. IC50 is defined as the concentration of compound required for 50% inhibition of HDAC enzyme activity.

Take `CCN(CCC(C)(C)C)Cc1c(CCC(C)C)nc2cc(C=CC(=O)NO)ccn12` [Compound 68, 3-[3-{[(3,3-Dimethyl-butyl)-ethyl-amino]-methyl}-2-(3-methyl-butyl)-imidazo[1,2-a]pyridin-7-yl]-N-hydroxy-acrylamide]: the IC50 with Colo205 cells came to 130 nM; on HDAC1 enzyme it was 40 nM.
The matching figures for `CCCCN(CC)Cc1c(CCC)nc2cc(C=CC(=O)NO)ccn12` [Compound 57, 3-{3-[(Butyl-ethyl-amino)-methyl]-2-propyl-imidazo[1,2-a]pyridin-7-yl}-N-hydroxy-acrylamide]: 160 nM and 40 nM.
With `CCN(CCC(C)(C)C)Cc1c(C(C)(C)C)nc2cc(C=CC(=O)NO)ccn12` [Compound 23, 3-(2-tert-Butyl-3-{[(3,3-dimethyl-butyl)-ethyl-amino]-methyl}-imidazo[1,2-a]pyridin-7-yl)-N-hydroxy-acrylamide], the IC50 with Colo205 cells worked out at 480 nM; on HDAC1 enzyme, 70 nM.
As for `CCCN(Cc1c(C(C)(C)C)nc2cc(C=CC(=O)NO)ccn12)C(C)C` [Compound 32, 3-{2-tert-Butyl-3-[(isopropyl-propyl-amino)-methyl]-imidazo[1,2-a]pyridin-7-yl}-N-hydroxy-acrylamide], the IC50 was 2500 nM in the assay with Colo205 cells and 300 nM on HDAC1 enzyme.
The matching figures for `CCCCCCCN(CC)Cc1c(C(C)(C)C)nc2cc(/C=C/C(=O)NO)ccn12` [Compound 25]: 2700 nM and 540 nM.
Turning to `CCCCN(CC)Cc1c(CCC(C)C)nc2cc(C=CC(=O)NO)ccn12` [Compound 66, 3-[3-[(Butyl-ethyl-amino)-methyl]-2-(3-methyl-butyl)-imidazo[1,2-a]pyridin-7-yl]-N-hydroxy-acrylamide], the results for the IC50 in the assay with Colo205 cells and on HDAC1 enzyme were 160 nM and 40 nM, respectively.
Take `CCCN(Cc1c(C)nc2cc(C=CC(=O)NO)ccn12)CC(C)(C)C` [Compound 38, 3-(3-{[(2,2-Dimethyl-propyl)-propyl-amino]-methyl}-2-methyl-imidazo[1,2-a]pyridin-7-yl)-N-hydroxy-acrylamide]: the IC50 stood at 700 nM with Colo205 cells and 130 nM on HDAC1 enzyme.
In the case of `CCCCc1nc2cc(C=CC(=O)NO)ccn2c1CN(CCC)CCCC` [Compound 10, 3-{2-Butyl-3-[(butyl-propyl-amino)-methyl]-imidazo[1,2-a]pyridin-7-yl}-N-hydroxy-acrylamide], the IC50 came to 580 nM with Colo205 cells and 90 nM at HDAC1 enzyme.
Consider `CCN(CCC(C)C)Cc1c(CCC(C)C)nc2cc(/C=C/C(=O)NO)ccn12` [Compound 67, 3-[3-{[Ethyl-(3-methyl-butyl)-amino]-methy}-2-(3-methyl-butyl)-imidazo[1,2-a]pyridin-7-yl]-N-hydroxy-acrylamide], for which the IC50 with Colo205 cells was determined as 130 nM; on HDAC1 enzyme it was 30 nM.
`CCCCc1nc2cc(C=CC(=O)NO)ccn2c1CN(CC)CCCC` [Compound 9, 3-{2-Butyl-3-[(butyl-ethyl-amino)-methyl]-imidazo[1,2-a]pyridin-7-yl}-N-hydroxy-acrylamide]: the figures for the IC50 with Colo205 cells and at HDAC1 enzyme were 160 nM and 60 nM, respectively.
As to `CN(Cc1c(C(C)(C)C)nc2cc(/C=C/C(=O)NO)ccn12)CC(C)(C)C` [Compound 33, 3-(-tert-Butyl-3-{[(2,2-dimethyl-propyl)-methyl-amino]-methyl}-imidazo[1,2-a]pyridin-7-yl)-N-hydroxy-acrylamide], the values for the IC50 in the assay with Colo205 cells and on HDAC1 enzyme were 6300 nM and 780 nM, respectively.
As for `CCN(CCC(C)C)Cc1c(C(C)(C)C)nc2cc(C=CC(=O)NO)ccn12` [Compound 20, 3-(2-tert-Butyl-3-{[ethyl-(3-methyl-butyl)-amino]-methyl}-imidazo[1,2-a]pyridin-7-yl)-N-hydroxy-acrylamide], the IC50 came to 350 nM with Colo205 cells and 60 nM at HDAC1 enzyme.
With `CCCCc1nc2cc(C=CC(=O)NO)ccn2c1CN(C)C` [Compound 14, 3-(2-Butyl-3-dimethylaminomethyl-imidazo[1,2-a]pyridin-7-yl)-N-hydroxy-acrylamide], the IC50 came out at 230 nM with Colo205 cells and 40 nM on HDAC1 enzyme.
Turning to `CCCCc1nc2cc(C=CC(=O)NO)ccn2c1CN(CC)CCC(C)C` [Compound 42, 3-(2-Butyl-3-{[ethyl-(3-methyl-butyl)-amino]-methyl}-imidazo[1,2-a]pyridin-7-yl)-N-hydroxy-acrylamide], the figures for the IC50 with Colo205 cells and at HDAC1 enzyme were 90 nM and 20 nM, respectively.
As for `CN(CCC(C)(C)C)Cc1c(C(C)(C)C)nc2cc(C=CC(=O)NO)ccn12` [Compound 37, 3-(2-tert-Butyl-3-{[(3,3-dimethyl-butyl)-methyl-amino]-methyl}-imidazo[1,2-a]pyridin 7-yl)-N-hydroxy-acrylamide], the IC50 amounted to 730 nM with Colo205 cells and 270 nM at HDAC1 enzyme.
The matching figures for `CCN(CC)Cc1c(C(C)(C)C)nc2cc(C=CC(=O)NO)ccn12` [Compound 11, 3-(2-tert-Butyl-3-diethylaminomethyl-imidazo[1,2-a]pyridin-7-yl)-N-hydroxy-acrylamide]: 4400 nM and 1200 nM.
With `CCCCCN(CC)Cc1c(C(C)(C)C)nc2cc(C=CC(=O)NO)ccn12` [Compound 18, 3-{2-tert-Butyl-3-[(ethyl-pentyl-amino)-methyl]-imidazo[1,2-a]pyridin-7-yl}-N-hydroxy-acrylamide], the figures for the IC50 with Colo205 cells and on HDAC1 enzyme were 750 nM and 130 nM, respectively.
Regarding `CCCCc1nc2cc(C=CC(=O)NO)ccn2c1CN(CC)CC` [Compound 7, 3-(2-Butyl-3-diethylaminomethyl-imidazo[1,2-a]pyridin-7-yl)-N-hydroxy-acrylamide], the figures for the IC50 with Colo205 cells and at HDAC1 enzyme were 680 nM and 180 nM, respectively.
For the compound `CCN(Cc1c(C(C)(C)C)nc2cc(C=CC(=O)NO)ccn12)CC1CC1` [Compound 27, 3-{2-tert-Butyl-3-[(cyclopropylmethyl-ethyl-amino)-methyl]-imidazo[1,2-a]pyridin-7-yl}-N-hydroxy-acrylamide], the values for the IC50 in the assay with Colo205 cells and on HDAC1 enzyme were 2100 nM and 330 nM, respectively.
For `CCCN(CC)Cc1c(C(C)(C)C)nc2cc(C=CC(=O)NO)ccn12` [Compound 13, 3-{2-tert-Butyl-3-[(ethyl-propyl-amino)-methyl]-imidazo[1,2-a]pyridin-7-yl}-N-hydroxy-acrylamide], the IC50 with Colo205 cells amounted to 1800 nM; at HDAC1 enzyme, 270 nM.
For `CCN(Cc1c(C(C)(C)C)nc2cc(C=CC(=O)NO)ccn12)CC(C)C` [Compound 17, 3-{2-tert-Butyl-3-[(ethyl-isobutyl-amino)-methyl]-imidazo[1,2-a]pyridin-7-yl}-N-hydroxy-acrylamide] the same measures were 3900 nM and 570 nM.
With `CCCCCCN(CC)Cc1c(C(C)(C)C)nc2cc(C=CC(=O)NO)ccn12` [Compound 21, 3-{2-tert-Butyl-3-[(ethyl-hexyl-amino)-methyl]-imidazo[1,2-a]pyridin-7-yl}-N-hydroxy-acrylamide], the IC50 in the assay on Colo205 cells came to 2000 nM; on HDAC1 enzyme, 240 nM.
Consider `CC(C)(C)CNCc1c(C(C)(C)C)nc2cc(C=CC(=O)NO)ccn12` [Compound 1, 3-{2-tert-Butyl-3-[(2,2-dimethyl-propylamino)-methyl]-imidazo[1,2-a]pyridin-7-yl}-N-hydroxy-acrylamide], for which the figures for the IC50 in the assay on Colo205 cells and at HDAC1 enzyme were 1500 nM and 190 nM, respectively.
